What follows are molecules tested against WDR5 (Homo sapiens (Human), UniProt P61964) (assay: Surface Plasmon Resonance (SPR) assay, KD and residence time). Settings: surface plasmon resonance (SPR) assay; read-out: WDR5 binding affinity (KD).
Format: binding

For `C[C@@H]1CN(c2cc(C(F)(F)F)c(-c3cnc(N4CCOCC4)nc3)cc2NC(=O)c2c[nH]c(=O)cc2C(F)(F)F)C[C@H](C)N1C` [Example 59, N-[5-(2-morpholin-4-ylpyrimidin-5-yl)-2-[rac-(3R,5S)-3,4,5-trimethylpiperazin-1-yl]-4-(trifluoromethyl)phenyl]-6-oxo-4-(trifluoromethyl)-1H-pyridine-3-carboxamide], which Kd is on record?
The Kd was greater than 200 nM.

Which Kd does the source give for `COc1cc(=O)[nH]cc1C(=O)Nc1cc(-c2cnc(N3CCOCC3)nc2)c(F)cc1N1C[C@@H](C)N(C)[C@@H](C)C1` [Example 65, N-[4-fluoro-5-(2-morpholin-4-ylpyrimidin-5-yl)-2-[(3R,5S)-3,4,5-trimethylpiperazin-1-yl]phenyl]-4-methoxy-6-oxo-1H-pyridine-3-carboxamide] here?
Its Kd is 57.2 nM.

Which Kd does the source give for `C[C@@H]1CN(c2cc(F)c(-c3ccnc(OCC4CC4)c3)cc2NC(=O)c2c[nH]c(=O)cc2C(F)(F)F)C[C@H](C)N1C` [Example 66, N-[5-[2-(cyclopropylmethoxy)pyridin-4-yl]-4-fluoro-2-[(3R,5S)-3,4,5-trimethylpiperazin-1-yl]phenyl]-6-oxo-4-(trifluoromethyl)-1H-pyridine-3-carboxamide] here?
Its Kd is 1.16 nM.

How did the Kd turn out when `C[C@@H]1CN(c2cc(F)c(-c3ccccc3CNC3CCCCC3)cc2NC(=O)c2c[nH]c(=O)cc2C(F)(F)F)C[C@H](C)N1C` [Example 67, N-[5-[2-[(cyclohexylamino)methyl]phenyl]-4-fluoro-2-[(3R,5S)-3,4,5-trimethylpiperazin-1-yl]phenyl]-6-oxo-4-(trifluoromethyl)-1H-pyridine-3-carboxamide] was run?
Its Kd is 4.82 nM.

`C[C@@H]1CN(c2cc(F)c(-c3ccc(N4CCOCC4)c(Cl)c3)cc2NC(=O)c2c[nH]c(=O)cc2C(F)(F)F)C[C@H](C)N1C` [Example 68, N-[5-(3-chloro-4-morpholin-4-ylphenyl)-4-fluoro-2-[(3R,5S)-3,4,5-trimethylpiperazin-1-yl]phenyl]-6-oxo-4-(trifluoromethyl)-1H-pyridine-3-carboxamide] was tested. Which Kd did it give?
The Kd was 1.34 nM.

How did the Kd turn out when `C[C@@H]1CN(c2cc(F)c(-c3ccc4c(c3)OCCCO4)cc2NC(=O)c2c[nH]c(=O)cc2C(F)(F)F)C[C@H](C)N1C` [Example 69, N-[5-(3,4-dihydro-2H-1,5-benzodioxepin-7-yl)-4-fluoro-2-[(3R,5S)-3,4,5-trimethylpiperazin-1-yl]phenyl]-6-oxo-4-(trifluoromethyl)-1H-pyridine-3-carboxamide] was run?
The Kd was 0.225 nM.

For `C[C@@H]1CN(c2cc(F)c(-c3ccc4c(c3)OCCO4)cc2NC(=O)c2c[nH]c(=O)cc2C(F)(F)F)C[C@H](C)N1C` [Example 70, N-[5-(2,3-dihydro-1,4-benzodioxin-6-yl)-4-fluoro-2-[(3R,5S)-3,4,5-trimethylpiperazin-1-yl]phenyl]-6-oxo-4-(trifluoromethyl)-1H-pyridine-3-carboxamide], which Kd is on record?
Its Kd is 0.429 nM.

With `C[C@@H]1CN(c2cc(F)c(-c3ccc4c(c3)OCCN4C)cc2NC(=O)c2c[nH]c(=O)cc2C(F)(F)F)C[C@H](C)N1C` [Example 71, N-[4-fluoro-5-(4-methyl-2,3-dihydro-1,4-benzoxazin-7-yl)-2-[(3R,5S)-3,4,5-trimethylpiperazin-1-yl]phenyl]-6-oxo-4-(trifluoromethyl)-1H-pyridine-3-carboxamide] as the molecule, how does the Kd read?
The Kd was 0.623 nM.

How did the Kd turn out when `CC(=O)Nc1ncc(-c2cc(NC(=O)c3c[nH]c(=O)cc3C(F)(F)F)c(N3C[C@@H](C)N(C)[C@@H](C)C3)cc2F)cn1` [Example 72, N-[5-(2-acetamidopyrimidin-5-yl)-4-fluoro-2-[(3R,5S)-3,4,5-trimethylpiperazin-1-yl]phenyl]-6-oxo-4-(trifluoromethyl)-1H-pyridine-3-carboxamide] was run?
The Kd was 0.823 nM.

With `C[C@@H]1CN(c2cc(F)c(C3=CCN(c4ccccc4)CC3)cc2NC(=O)c2c[nH]c(=O)cc2C(F)(F)F)C[C@H](C)N1C` [Example 73, N-[4-fluoro-5-(1-phenyl-3,6-dihydro-2H-pyridin-4-yl)-2-[(3R,5S)-3,4,5-trimethylpiperazin-1-yl]phenyl]-6-oxo-4-(trifluoromethyl)-1H-pyridine-3-carboxamide] as the molecule, how does the Kd read?
The Kd was 3.63 nM.
